Assay results reported in patent US20060052430A1, “Antihistamines for increased tolerance to extreme heat” (priority 2004, published 2006).

Experiments:
[1] = in vivo; cited from earlier work
rat = details: literature; cited from earlier work
chickens = details: cimetidine in the diet, stress was not heat; cited from earlier work
[2] = conscious rats, i.v. 10 mg/kg in 3% EtOH 30 minutes prior to heat exposure at 44° C. ± 1

CN/C(=N/CCSCc1nc[nH]c1C)NC#N [Cimetidine, cimetidine]
Core body temperature after onset of heat stroke until heat shock, vs controls (conscious rats; FIG. 1): lower core body temperature
Time a lower, non-pathological core temperature is maintained in extreme heat, vs controls (conscious rats; FIG. 1, cimetidine pretreated animals): 2-4 times longer
Time of MAP blood pressure crash, vs controls (conscious rats; FIG. 2): delayed
Increase of interval between initiation of exposure to extreme heat and heat stroke crash to 40 mmHg, vs control (conscious rats; cimetidine pretreatment, P<0.05): 2.6 fold
Max. HR (heart rate) (conscious rats; [2]): 532 ± 28 BPM ± SEM
Max. MAP (mean arterial pressure) (conscious rats; [2]): 173 ± 23 mmHg ± SEM
Max. TB (body temperature) (conscious rats; [2]): 41.9 ± 0.9 °C ± SEM
Heat Tolerance (time of heat exposure until heat shock, TB ≧ 41.3° C. and MAP <40 mmHg) (conscious rats; conscious rats, i.v. 10 mg/kg in 3% EtOH 30 minutes prior to heat exposure at 44° C. ± 1, p<0.05 vs control): 315 ± 61 minutes ± SEM
Heart rate in the interval from exposure to heat stroke, MAP crash, vs controls (conscious rats; rat, in vivo): did not differ
Half-life [1]: 2 h
Effect in heat-induced brain injury (blood-brain barrier permeability, cerebral blood flow disturbances, edema, cell reactions) (rat): beneficial
Stress-induced modulations (chickens): reduced
